Laboratory results taken from ChEMBL document CHEMBL1201862, “PubChem BioAssay data set” (2004).
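In this assay, cells in 96-well plates receive the compound at five concentrations for 48 hours. Endpoints are linearly interpolated between the surrounding concentrations. At the GI50, growth is halved.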 Active and inactive are the calls of the source. Cut-off read from the data, not from the text of the source: active = GI50 up to about 1.1 µM and inactive = higher.

Legend:
Test in all cases: NCI anticancer screen, dose series, 48 h
[1] = system: 786-0
[2] = system: ACHN
[3] = system: EKVX
[4] = system: HCC 2998
[5] = system: HCT-15
[6] = system: HOP-62
[7] = system: HT-29
[8] = system: LOX IMVI
[9] = system: MDA-MB-435
[10] = system: MDA-N
[11] = system: MOLT-4
[12] = system: NCI-H226
[13] = system: OVCAR-3
[14] = system: OVCAR-4
[15] = system: RPMI-8226
[16] = system: SW-620
[17] = system: TK-10
[18] = system: UACC-257
[19] = system: UACC-62
[20] = system: UO-31

Measured: GI50

CCc1n[nH]c(=O)n1NC(=O)CCCC(=O)O
> 100 µM: [5]
inactive: [1] > 100 µM | [2] > 100 µM | [3] > 100 µM | [4] > 100 µM | [6] > 100 µM | [7] > 100 µM | [8] > 100 µM | [9] > 100 µM | [10] > 100 µM | [11] > 100 µM | [12] > 100 µM | [13] > 100 µM | [14] > 100 µM | [15] > 100 µM | [16] > 100 µM | [17] > 100 µM | [18] > 100 µM | [19] > 100 µM | [20] > 100 µM

CC(=O)CCn1c(=S)sc2ccccc21
> 100 µM: [5]
inactive: [1] > 100 µM | [2] > 100 µM | [3] > 100 µM | [4] > 100 µM | [6] > 100 µM | [7] > 100 µM | [8] > 100 µM | [9] > 100 µM | [10] > 100 µM | [11] > 100 µM | [12] > 100 µM | [13] > 100 µM | [14] > 100 µM | [16] > 100 µM | [17] > 100 µM | [18] > 100 µM | [19] > 100 µM | [20] 41.3 µM

Cc1ccc(S(=O)(=O)Oc2ccc(OS(=O)(=O)c3ccc(C)cc3)c3c2C(=O)c2ccccc2C3=O)cc1
> 100 µM: [5]
inactive: [1] 50.7 µM | [2] > 100 µM | [3] > 100 µM | [4] > 100 µM | [6] 37.8 µM | [7] > 100 µM | [8] > 100 µM | [9] > 100 µM | [10] > 100 µM | [11] > 100 µM | [12] > 100 µM | [13] > 100 µM | [14] > 100 µM | [16] > 100 µM | [17] > 100 µM | [18] > 100 µM | [19] > 100 µM | [20] 33.8 µM

C#CC(O)/C=C/C(O)CCCC(O)CC#CC(O)C#CCCCCC(O)/C=C/CCCC(=O)CCCCCCCCCCCCCCCC(O)C(O)C#CC(=O)O (stereo unspecified)
inactive: [1] > 25 µM | [2] > 25 µM | [3] > 25 µM | [4] > 25 µM | [6] > 25 µM | [7] > 25 µM | [8] 5.37 µM | [9] > 25 µM | [10] > 25 µM | [11] > 25 µM | [12] > 25 µM | [14] > 25 µM | [15] > 25 µM | [17] > 25 µM | [18] > 25 µM | [19] > 25 µM | [20] > 25 µM
> 25 µM: [5]

c1ccc2c(c1)ccc1nc(-c3ccc4c(c3)OCO4)c3c(c12)CCC3
83.2 µM: [5]
inactive: [1] > 100 µM | [2] > 100 µM | [3] 89.3 µM | [4] 79.4 µM | [6] > 100 µM | [7] 41.1 µM | [9] 59.6 µM | [10] > 100 µM | [11] 42.8 µM | [12] > 100 µM | [13] > 100 µM | [14] 57.1 µM | [15] 37.1 µM | [16] > 100 µM | [18] > 100 µM | [19] > 100 µM | [20] 78 µM

CC(C)(O)/C=C\P(C)(=O)c1ccccc1 (stereo unspecified)
> 100 µM: [5]
inactive: [1] > 100 µM | [2] > 100 µM | [3] > 100 µM | [4] > 100 µM | [6] > 100 µM | [7] > 100 µM | [8] > 100 µM | [9] > 100 µM | [10] > 100 µM | [12] > 100 µM | [13] > 100 µM | [14] > 100 µM | [15] 39.4 µM | [16] > 100 µM | [17] > 100 µM | [18] > 100 µM | [19] > 100 µM

COc1cccc(NC(=O)CC(=O)N2N=C(C)C(/N=N/c3ccc(S(=O)(=O)CCOS(=O)(=O)O)cc3)C2=O)c1 (stereo unspecified)
3.42 µM: [5]
inactive: [1] 2.74 µM | [2] 3.99 µM | [3] 17.7 µM | [4] 15.5 µM | [6] 13 µM | [7] 3.76 µM | [8] 1.5 µM | [9] 2.65 µM | [10] 3.69 µM | [11] 2.26 µM | [12] 4.66 µM | [13] 4.21 µM | [14] 1.58 µM | [15] 2.75 µM | [16] 2.99 µM | [17] 5.75 µM | [18] 8.93 µM | [20] 12.1 µM
